Data: patent publication US6875760B2 (Novo Nordisk A/S, priority 1999, dated 2005)

Biological target: T1, human glucagon receptor (Homo sapiens, UniProt P47871)
T1 construct: expressed in transfected cells; host or cells: BHK (baby hamster kidney) cells
Assay: Glucagon Binding Assay (III)
Details: BHK cell membranes, WGA SPA beads, 125I-glucagon; read-out: Glu Bd Assay (III) IC50
In short: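 Membranes from BHK cells transfected with the human receptor, prepared at 4 °C, were used in a WGA-bead scintillation proximity binding format. Plates were shaken for 4 hours, left to settle 8–48 hours and then counted. Non-specific binding was defined with 500 nM glucagon.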

T1 sequence (P47871 26-477): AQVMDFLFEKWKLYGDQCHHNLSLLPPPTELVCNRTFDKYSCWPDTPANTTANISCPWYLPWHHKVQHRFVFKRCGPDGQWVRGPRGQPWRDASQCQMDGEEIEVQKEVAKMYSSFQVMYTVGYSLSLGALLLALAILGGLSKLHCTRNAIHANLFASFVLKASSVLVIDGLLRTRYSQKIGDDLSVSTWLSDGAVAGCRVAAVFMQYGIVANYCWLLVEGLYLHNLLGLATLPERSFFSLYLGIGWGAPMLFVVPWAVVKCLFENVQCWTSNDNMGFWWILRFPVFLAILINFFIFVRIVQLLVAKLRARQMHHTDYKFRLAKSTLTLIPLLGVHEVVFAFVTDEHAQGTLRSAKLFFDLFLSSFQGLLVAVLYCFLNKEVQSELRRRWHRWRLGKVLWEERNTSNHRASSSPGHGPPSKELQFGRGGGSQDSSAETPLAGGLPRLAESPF

Row | IC50 | SMILES
1 | 87 nM | CC(=O)c1cccc(NC(=O)N(Cc2ccc(C(=O)Nc3nn[nH]n3)cc2)c2ccc(C(C)(C)C)cc2)c1 [Example 297, 4-[3-(3-Acetylphenyl)-1-(4-tert-butylphenyl)ureidomethyl]-N-(2H-tetrazol-5-yl)benzamide]
2 | 1160 nM | CCN(CC)C(=O)c1cccc(NC(=O)N(Cc2ccc(C(=O)Nc3nn[nH]n3)cc2)c2ccc(C(C)(C)C)cc2)c1 [Example 462, N,N-Diethyl-3-{3-(4-tert-butylphenyl)-3-[4-(2H-tetrazol-5-ylcarbamoyl)benzyl]ureido}benzamide]
3 | 35 nM | O=C(Nc1nn[nH]n1)c1ccc(CN(C(=O)Nc2ccc(SC(F)(F)F)cc2)c2ccc(C3CCCCC3)cc2)cc1 [Example 301, 4-[1-(4-Cyclohexylphenyl)-3-(4-trifluoromethylsulfanylphenyl)ureidomethyl]-N-(2H-tetrazol-5-yl)benzamide]
4 | 201 nM | O=C(O)CCNC(=O)c1ccc(CN(CCc2ccc(Cl)c(Cl)c2)C(=O)Nc2ccc(OC(F)(F)F)cc2)cc1 [Example 19, 3-{4-[1-[2-(3,4-Dichlorophenyl)ethyl]-3-(4-trifluoromethoxyphenyl)ureidomethyl]benzoylamino}propionic acid]
5 | 423 nM | O=C(O)CCNC(=O)c1ccc(CN(C(=O)Nc2cc(C(F)(F)F)cc(C(F)(F)F)c2)C2CCc3ccccc3C2)cc1 (stereo not drawn) [Example 86, 3-{4-[3-(3,5-Bis(trifluoromethyl)phenyl)-1-(1,2,3,4-tetrahydronaphthalen-2-yl)ureidomethyl]benzoylamino}propionic acid]
6 | 745 nM | CS(=O)(=O)c1ccc2nc(NC(=O)N(Cc3ccc(C(=O)Nc4nn[nH]n4)cc3)c3ccc(C4CCCCC4)cc3)sc2c1 [Example 616, 4-[1-(4-Cyclohexylphenyl)-3-(6-methylsulfonylbenzothiazol-2-yl)ureidomethyl]-N-(2H-tetrazol-5-yl)benzamide]
7 | 86 nM | O=C(Nc1nn[nH]n1)c1ccc(CN(C(=O)Nc2cccc(S(=O)(=O)N3CCc4ccccc43)c2)c2ccc(C3CCCCC3)cc2)cc1 [Example 267, 4-{1-(4-Cyclohexylphenyl)-3-[3-(2,3-dihydroindole-1-sulfonyl)phenyl]ureidomethyl}-N-(2H-tetrazol-5-yl)benzamide]
8 | 13 nM | O=C(Nc1nn[nH]n1)c1ccc(CN(C(=O)Nc2ccc(OC(F)(F)F)c(CO)c2)c2ccc(C3CCCCC3)cc2)cc1 [Example 568]
9 | 50 nM | CC(C)(C)c1ccc(N(Cc2ccc(C(=O)Nc3nn[nH]n3)cc2)C(=O)Nc2cccc(C(F)(F)F)c2)cc1 [Example 294, 4-[1-(4-tert-Butylphenyl)-3-(3-trifluoromethylphenyl)ureidomethyl]-N-(2H-tetrazol-5-yl)benzamide]
10 | 338 nM | O=C(O)CCNC(=O)c1ccc(CN(NC(=O)c2ccc(OC(F)(F)F)cc2)C2CCC(c3ccccc3)CC2)cc1 (stereo not drawn) [Example 426, 3-{4-[N-(4-Phenylcyclohexyl)-N′-(4-trifluoromethoxybenzoyl)hydrazinomethyl]benzoylamino}propionic acid]
11 | 151 nM | CCCCC(CC)CN(Cc1ccc(C(=O)NCCC(=O)O)cc1)C(=O)Nc1ccc(C(F)(F)F)cc1 (stereo not drawn) [Example 36, 3-{4-[1-(2-Ethylhexyl)-3-(4-trifluoromethylphenyl)ureidomethyl]benzoylamino}propionic acid]
12 | 1120 nM | CS(=O)(=O)c1ccc(C(=O)N(Cc2ccc(C(=O)Nc3nn[nH]n3)cc2)c2ccc(C3CCCCC3)cc2)cc1 [Example 483, 4-{[(4-Cyclohexylphenyl)-(4-methylsulfonylbenzoyl)amino]methyl}-N-(2H-tetrazol-5-yl)benzamide]
13 | 235 nM | O=C(O)CCNC(=O)c1ccc(CN(CC(c2ccccc2)c2ccccc2)C(=O)Cc2ccc(OC(F)(F)F)cc2)cc1 [Example 504, 3-[4-({(2,2-Diphenylethyl)-[2-(4-trifluoromethoxyphenyl)acetyl]amino}methyl)benzoylamino]propionic acid]
14 | 1980 nM | O=C(O)CCNC(=O)c1ccc(CN(C(=O)Nc2ccc(OC(F)(F)F)cc2)C2CCN(C(=O)C3CC3)CC2)cc1 [Example 381, 3-{4-[1-(1-Cyclopropanecarbonylpiperidin-4-yl)-3-(4-trifluoromethoxyphenyl)ureidomethyl]benzoylamino}propionic acid]
15 | 411 nM | CC(C)(C)c1ccc(N(Cc2ccc(C(=O)Nc3nn[nH]n3)cc2)C(=O)Nc2cccc(S(=O)(=O)N3CCCCC3)c2)cc1 [Example 277]
16 | 386 nM | CC(C)(C)C1CCC(N(Cc2ccc(C(=O)Nc3nn[nH]n3)cc2)C(=O)Cc2c(Cl)cccc2Cl)CC1 (stereo not drawn) [Example 539, 4-({(4-tert-Butylcyclohexyl)-[2-(2,6-dichlorophenyl)acetyl]amino}methyl)-N-(2H-tetrazol-5-yl)benzamide]

Row | IC50 | SMILES
17 | 16 nM | O=C(Nc1nn[nH]n1)c1ccc(CN(C(=O)Nc2cccc(OC(F)(F)F)c2)c2ccc(C3CCCCC3)cc2)cc1 [Example 344, 4-[1-(4-Cyclohexylphenyl)-3-(3-trifluoromethoxyphenyl)ureidomethyl]-N-(2H-tetrazol-5-yl)benzamide]
18 | 1980 nM | O=C(Nc1nn[nH]n1)c1ccc(CN(C(=O)c2cccc([N+](=O)[O-])c2)c2ccc(C3CCCCC3)cc2)cc1 [Example 481, 4-{[(4-Cyclohexylphenyl)-(3-nitrobenzoyl)amino]methyl}-N-(2H-tetrazol-5-yl)benzamide]
19 | 8 nM | O=C(Nc1nn[nH]n1)c1ccc(CN(C(=O)Nc2ccc(OC(F)(F)F)c(-c3nc4ccccc4o3)c2)c2ccc(C3CCCCC3)cc2)cc1 [Example 360, 4-[3-(3-Benzoxazol-2-yl-4-trifluoromethoxyphenyl)-1-(4-cyclohexylphenyl)ureidomethyl]-N-(2H-tetrazol-5-yl)benzamide]
20 | 1650 nM | O=C(O)CCNC(=O)c1ccc(CN(C(=O)Nc2ccc(OC(F)(F)F)cc2)[C@H]2CC[C@H](OC(=O)Nc3ccc(OC(F)(F)F)cc3)CC2)cc1 [Example 97, 3-{4-[1-(trans-4-(4-Trifluoromethoxyphenylcarbamoyloxy)cyclohexyl)-3-(4-trifluoromethoxyphenyl)ureidomethyl]benzoylamino}propionic acid]
21 | 8 nM | CC(C)N1C(=O)c2ccc(NC(=O)N(Cc3ccc(C(=O)Nc4nn[nH]n4)cc3)c3ccc(C4CCCCC4)cc3)cc2C1=O [Example 627, 4-[1-(4-Cyclohexylphenyl)-3-(N-isopropylphthalimid-4-yl)ureidomethyl]-N-(2H-tetrazol-5-yl)benzamide]
22 | 494 nM | CCC1CCC(N(Cc2ccc(C(=O)NCCC(=O)O)cc2)C(=O)Nc2cc(C(F)(F)F)cc(C(F)(F)F)c2)C1 (stereo not drawn) [Example 85, 3-{4-[3-(3,5-Bis(trifluoromethyl)phenyl)-1-(3-ethylcyclopentyl)ureidomethyl]benzoylamino}propionic acid]
23 | 1320 nM | CC(C)(C)C1CCC(N(Cc2ccc(C(=O)NCCC(=O)O)cc2)C(=O)Nc2cccc(S(C)(=O)=O)c2)CC1 (stereo not drawn) [Example 252, 3-{4-[1-(4-tert-Butylcyclohexyl)-3-(3-methylsulfonylphenyl)ureidomethyl]benzoylamino}propionic acid]
24 | 135 nM | CCC[C@H]1CC[C@H](N(Cc2ccc(C(=O)NCCC(=O)O)cc2)C(=O)Nc2ccc(OC(F)(F)F)cc2)CC1 [Example 76, 3-{4-[1-(4-trans-Propylcyclohexyl)-3-(4-trifluoromethoxyphenyl)ureidomethyl]benzoylamino}propionic acid]
25 | 266 nM | CC(C)(C)C1CCC(N(Cc2ccc(C(=O)Nc3nn[nH]n3)cc2)C(=O)c2cc3cc(OC(F)(F)F)ccc3[nH]2)CC1 (stereo not drawn) [Example 557, 5-Trifluoromethoxy-1H-indole-2-carboxylic acid (4-tert-butylcyclohexyl)-[4-(2H-tetrazol-5-ylcarbamoyl)benzyl]amide]
26 | 293 nM | O=C(O)CCNC(=O)c1ccc(CN(C(=O)c2cccc(C(F)(F)F)c2)c2ccc(C3CCCCC3)cc2)cc1 [Example 524, 3-(4-{[(4-Cyclohexylphenyl)-(3-trifluoromethylbenzoyl)amino]methyl}benzoylamino)propionic acid]
27 | 35 nM | CC(C)N1C(=O)c2ccc(NC(=O)N(Cc3ccc(C(=O)Nc4nn[nH]n4)cc3)c3ccc(C(C)(C)C)cc3)cc2C1=O [Example 628, 4-[1-(4-tert-Butyl-phenyl)-3-(N′-isopropylphthalimid-4-yl)ureidomethyl]-N-(2H-tetrazol-5-yl)benzamide]
28 | 280 nM | CC(C)(C)C1CCC(N(Cc2ccc(C(=O)Nc3nn[nH]n3)cc2)C(=O)CSCc2ccccc2)CC1 (stereo not drawn) [Example 537, 4-{[(2-Benzylsulfanylacetyl)-(4-tert-butylcyclohexyl)amino]methyl}-N-(2H-tetrazol-5-yl)benzamide]
29 | 279 nM | CC(C)(C)c1ccc(N(Cc2ccc(C(=O)Nc3nn[nH]n3)cc2)C(=O)Nc2cccc(C#N)c2)cc1 [Example 295, 4-[1-(4-tert-Butylphenyl)-3-(3-cyanophenyl)ureidomethyl]-N-(2H-tetrazol-5-yl)benzamide]
30 | 667 nM | CC(C)(C)C1CCC(N(Cc2ccc(C(=O)Nc3nn[nH]n3)cc2)C(=O)c2cccc(C(F)(F)F)c2)CC1 (stereo not drawn) [Example 514, 4-{[(4-tert-Butylcyclohexyl)-(3-trifluoromethylbenzoyl)amino]methyl}-N-(2H-tetrazol-5-yl)benzamide]
31 | 566 nM | O=C(Nc1nn[nH]n1)c1ccc(CN(C(=O)Cc2ccc(F)cc2F)c2ccc(C3CCCCC3)cc2)cc1 [Example 496, 4-({(4-Cyclohexylphenyl)-[2-(2,4-difluorophenyl)acetyl]amino}methyl)-N-(2H-tetrazol-5-yl)benzamide]

Row | SMILES | IC50
32 | O=C(O)CCNC(=O)c1ccc(CN(C(=O)Oc2ccc(F)c(F)c2)c2ccc(C3CCCCC3)cc2)cc1 [Example 417, 3-(4-{[(4-Cyclohexylphenyl)-(3,4-difluorophenoxycarbonyl)amino]methyl}benzoylamino)propionic acid] | 877 nM
33 | CC(C)(C)c1ccc(N(Cc2ccc(C(=O)NCCC(=O)O)cc2)C(=O)Oc2cc(C(F)(F)F)cc(C(F)(F)F)c2)cc1 [Example 410, 3-(4-{[(3,5-Bis(trifluoromethyl)phenoxycarbonyl)-(4-tert-butylphenyl)amino]methyl}benzoylamino)propionic acid] | 386 nM
